How the values were obtained:
VMAT2 [1] = assay: Pretreatment and displacement PET with tetrabenazine using [^18F]FE-DTBZ-d4; assay type: in vivo, cynomolgus monkey; details: tetrabenazine 2 mg/kg
Description: In NHP1, one PET measurement was performed after pretreatment with tetrabenazine (2 mg/kg), which was administered 15 min prior to the administration of [^18F]FE-DTBZ-d4. In NHP2, two displacement experiments were performed with the administration of tetrabenazine (2 mg/kg) 25 min after the injection of [^18F]FE-DTBZ-d4.
The regions of interest (ROIs) were delineated manually on the MRI images of each NHP for putamen, caudate, midbrain, occipital cortex, and cerebellum. The MRI of all of the individual NHPs was coregistered to summed PET images of the whole PET measurement. The time–activity curves of NHP brain regions were generated from dynamic PET data with the application of the coregistration parameters to ROIs. Quantification was performed using the Logan graphical analysis, and the cerebellum was used as a reference region. The outcome measure was the binding potential (BPND).

VMAT2 [2] = assay: PET quantification of VMAT2 binding (BPND, Logan noninvasive analysis, cerebellum reference); assay type: in vivo, cynomolgus monkey; details: for Binding potential (BPND) caudate / Binding potential (BPND) midbrain / Binding potential (BPND) putamen: Logan noninvasive analysis, cerebellum as reference region; for peak equilibrium: cynomolgus monkey brain, baseline PET
Description: The outcome measure was the binding potential (BPND).

[3] = Radiometabolite analysis in monkey plasma by gradient radio-HPLC; assay type: in vivo, cynomolgus monkey; details: 90 min after injection
Description: Radiometabolite analysis was performed following a method reported elsewhere.[34] Venous blood samples (2 mL) were obtained from the monkey at different time points such as 2.5, 15, 30, 45, 60, 90, 120, 150, and 180 min after injection of [^18F]FE-DTBZ/[^18F]FE-DTBZ-d4. For [^11C]-DTBZ, venous blood samples (2 mL) were obtained at time points 2.5, 15, 30, 45, 60, and 90 min after injection. Collected blood was centrifuged at 2000g for 2 min to obtain the plasma (0.5 mL). The plasma was mixed with 1.4 times volume of acetonitrile followed by centrifugation at 2000g for 4 min. The extract was separated from the pellet and was diluted with water before injecting into the HPLC equipped with a reverse-phase μ-Bondapak HPLC column, (300 mm × 10 mm I.D). […] Peaks for radioactive compounds eluting from the column were integrated and their areas were expressed as a percentage of the sum of the areas of all detected radioactive compounds (decay-corrected to the time of injection on the HPLC). To calculate the recovery of radioactivity from the system, an aliquot (2 mL) of the eluate from the HPLC column was measured and divided by the amount of the total injected radioanalyte.

[4] = cited from earlier work
VMAT2 [5] = details: rats; cited from earlier work
[6] = PET whole brain uptake and kinetics in cynomolgus monkeys (HRRT); details: whole brain peak, baseline PET
Description: Anesthesia was induced by intramuscular injection of ketamine hydrochloride (approximately 10 mg/kg, Ketaminol vet. Intervet) and maintained by the administration of a mixture of sevoflurane, oxygen, and medical air after endotracheal intubation. The head was immobilized using a fixation device.[32]
Three female cynomolgus monkeys (NHP1, NHP2, and NHP3) (weight of 5.8–6.95 kg) were studied in 10 different experimental days for a total of 12 PET experiments. All PET experiments were performed using a high-resolution research tomograph (HRRT) PET scanner (Siemens Molecular Imaging, Knoxville, TN). A 6 min transmission scan was performed every time before the injection of the radioligands using a single ^137Cs source. […]
All three monkeys underwent two PET measurements on the same day at once. […] Venous blood sampling was performed manually for the measurement of protein binding, blood, and plasma radioactivity and radiometabolite analysis. […]
The regions of interest (ROIs) were delineated manually on the MRI images of each NHP for putamen, caudate, midbrain, occipital cortex, and cerebellum. […] Quantification was performed using the Logan graphical analysis, and the cerebellum was used as a reference region. […]

[7] = Plasma protein binding by ultrafiltration; assay type: in vitro ADME; details: cynomolgus, cynomolgus monkey, pH 7.4, NHP plasma, baseline, read-out: plasma free fraction (fP)
Description: Plasma protein binding of all three radioligands was measured in duplicate in baseline conditions. NHP blood plasma (500 μL) and a PBS solution (pH 7.4, KCl 0.2 mg, KH2PO4 0.2 mg, Na2HPO4 1.42 mg, NaCl 8 mg in 1 mL) were mixed with the respective radioligand (50 μL, approx. 20 MBq in PBS). The plasma mixture was incubated for 10 min at room temperature and a small portion (20 μL) from each incubation mixture was measured in a well counter. A portion (200 μL) from all individual incubation mixtures was pipetted out into ultrafiltration tubes (Millipore Centrifree YM-30) and centrifuged at 3000 rpm for 15 min. Samples (20 μL) from each filtrate were counted in a well counter. The following formula was used to calculate the protein-bound fraction. [drawing 1] where Cpla (total) is the radioactivity concentration of the incubation mixture in plasma, CPBS (total) is the radioactivity concentration of the incubation mixture in PBS, and Cpla (filtrate) and […] the radioactivity concentrations from filtrate samples.

VMAT2 [8] = details: cited from earlier work

Structure (SMILES) | uptake of [^18F]FE-DTBZ-d4 in caudate, putamen, and midbrain after pretreatment (VMAT2 [1]; 15 min prior to radioligand injection) | uptake of [^18F]FE-DTBZ-d4 in caudate, putamen, and midbrain in displacement experiment (VMAT2 [1]; 25 min after radioligand injection) | Binding potential (BPND) caudate (VMAT2 [2]) | peak equilibrium (VMAT2 [2]) | Binding potential (BPND) midbrain (VMAT2 [2]) | Binding potential (BPND) putamen (VMAT2 [2]) | percent of unchanged radioligand in plasma [3] | in vivo metabolism ([4]; large piglet model) | striatum-to-cerebellum ratio (VMAT2 [5]) | brain uptake (SUV) [6] | fraction unbound at 10 min, 36 MBq/mL [7] | bone uptake ([4]; PET/CT in pigs, compared with [^18F]FE-(+)-DTBZ) | better binding affinity over the (−)-enantiomer (VMAT2 [8])
COc1cc2c(cc1OC)C1CC(=O)C(CC(C)C)CN1CC2 (centres unmarked) [tetrabenazine] | decreased almost to the level of the cerebellum and occipital cortex | clear reduction | – | – | – | – | – | – | – | – | – | – | –
COc1cc2c(cc1OCC[18F])CCN1C[C@@H](CC(C)C)[C@H](O)C[C@H]21 [[^18F]FE-DTBZ, ^18F-fluoroethyl-(+)-dihydrotetrabenazine] | – | – | 3.8 ± 0.5 | > 60 min | 1.1 ± 0.1 | 4.7 ± 0.3 | 10 ± 4% | metabolized extensively by in vivo defluorination | relatively poor | 3.43 ± 0.54 | 0.56 | – | –
[2H]C([2H])([18F])C([2H])([2H])Oc1cc2c(cc1OC)[C@H]1C[C@@H](O)[C@H](CC(C)C)CN1CC2 [[^18F]FE-DTBZ-d4] | – | – | 4.4 ± 1.1 | 40 min | 1.4 ± 0.4 | 5.5 ± 1.4 | 30 ± 17% | – | – | 4.28 ± 1.01 | 0.52 ± 0.01 | lower bone uptake | –
COc1cc2c(cc1OC)[C@H]1C[C@@H](O)[C@H](CC(C)C)CN1CC2 (single isomer, unassigned) [(+)-enantiomer, dihydrotetrabenazine] | – | – | – | – | – | – | – | – | – | – | – | – | 1000 fold
